Measurements as given in ChEMBL document CHEMBL1201862, “PubChem BioAssay data set” (2004).
The source made the active and inactive calls.

Tests used:
Cytochrome P450 3A4 = Cytochrome P450 3A4 (Homo sapiens, UniProt P08684); details: Potency;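 also: confirmatory qHTS run detecting inhibitors and substrates of CYP3A4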
Large T antigen = Large T antigen (Simian virus 40, UniProt P03070); type: functional, Betapolyomavirus macacae;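 also: Confirmatory-stage PubChem screen for compounds that inhibit SV40 T antigen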
Large T antigen, sequence (P03070 whole entry, the tested form may be a part): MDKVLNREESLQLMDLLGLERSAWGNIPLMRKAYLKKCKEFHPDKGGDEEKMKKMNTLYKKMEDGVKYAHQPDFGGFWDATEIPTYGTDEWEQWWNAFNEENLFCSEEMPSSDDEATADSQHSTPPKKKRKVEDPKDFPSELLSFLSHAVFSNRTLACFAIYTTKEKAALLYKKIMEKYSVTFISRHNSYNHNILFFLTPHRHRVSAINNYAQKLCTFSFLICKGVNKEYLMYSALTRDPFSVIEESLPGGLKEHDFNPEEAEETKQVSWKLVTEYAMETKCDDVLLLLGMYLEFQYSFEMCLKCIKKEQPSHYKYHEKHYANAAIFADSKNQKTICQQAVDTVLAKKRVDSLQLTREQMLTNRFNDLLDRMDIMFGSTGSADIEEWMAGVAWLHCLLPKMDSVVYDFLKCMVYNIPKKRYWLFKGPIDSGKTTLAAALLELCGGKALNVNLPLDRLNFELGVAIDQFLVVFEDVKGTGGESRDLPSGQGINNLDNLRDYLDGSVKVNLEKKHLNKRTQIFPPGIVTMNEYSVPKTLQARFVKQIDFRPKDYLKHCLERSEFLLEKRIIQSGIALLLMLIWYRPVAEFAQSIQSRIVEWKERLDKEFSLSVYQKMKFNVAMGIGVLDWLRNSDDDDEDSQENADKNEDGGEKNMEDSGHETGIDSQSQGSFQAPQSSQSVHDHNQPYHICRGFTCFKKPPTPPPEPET

[1] = HIV-1 AD8 envelope cell-cell fusion blockers – cherry-pick, dose response (AID 652062); type: functional, cell-based;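 also: luciferase signal from cell-cell fusion driven by HIV-1 clade B AD8 Env; potency is for inhibitors of fusion seen as a drop in luminescence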
[2] = off-target signal loss in HeLa-CEM21 co-culture – HeLa F-luc CTL cells, cherry-picked, counter-screen for HIV-1 Env fusion inhibitor project, dose response (AID 652040); type: functional, cell-based;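 also: potency for signal decrease marking cytotoxic or nonspecific inhibition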
[3] = blockers of HIV-1 ZM109 envelope-driven cell-cell fusion – HeLa effector, CEM target cells, luciferase, cherry-pick, dose response (AID 652058); type: functional, cell-based;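 also: luciferase signal from HIV-1 Env mediated cell-cell fusion of effector and target cells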
[4] = blockers of HIV-1 envelope-mediated cell-cell fusion – cherry-pick, dose response (AID 652057); type: functional, cell-based
[5] = biological target: T1, Rac GTPase-activating protein 1 (Homo sapiens, UniProt Q9H0H5); test: blockers of MgcRacGAP-driven Rac1 GTP hydrolysis – biochemical, ADP Hunter fluorescence, primary and confirmatory, confirmation (AID 624330); type: functional
T1 sequence (Q9H0H5 whole entry): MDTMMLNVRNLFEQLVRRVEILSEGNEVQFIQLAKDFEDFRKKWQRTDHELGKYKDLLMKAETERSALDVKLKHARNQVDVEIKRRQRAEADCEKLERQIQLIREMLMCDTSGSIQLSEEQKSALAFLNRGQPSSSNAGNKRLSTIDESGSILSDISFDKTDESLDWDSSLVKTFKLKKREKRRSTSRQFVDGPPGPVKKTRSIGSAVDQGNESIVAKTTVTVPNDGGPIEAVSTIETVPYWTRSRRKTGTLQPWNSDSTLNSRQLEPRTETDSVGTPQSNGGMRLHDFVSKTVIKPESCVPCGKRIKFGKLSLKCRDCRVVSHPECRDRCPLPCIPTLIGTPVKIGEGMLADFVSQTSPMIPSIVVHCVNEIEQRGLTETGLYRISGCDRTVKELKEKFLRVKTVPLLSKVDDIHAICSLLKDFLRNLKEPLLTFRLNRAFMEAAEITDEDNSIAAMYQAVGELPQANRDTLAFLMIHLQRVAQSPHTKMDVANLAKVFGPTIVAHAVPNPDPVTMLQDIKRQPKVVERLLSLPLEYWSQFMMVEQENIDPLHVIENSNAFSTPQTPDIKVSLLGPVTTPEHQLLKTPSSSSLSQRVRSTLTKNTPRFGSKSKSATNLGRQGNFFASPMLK

[6] = biological target: T2, Heat shock factor protein 1 (Mus musculus, UniProt P38532); test: decrease of HSF1-responsive luciferase luminescence – cell-based, NIH3T3, dose retest, confirmation (AID 2382); type: functional;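 also: NIH3T3 fibroblasts with HSF1-driven luciferase reporter stressed by proteasome inhibitor MG132; luminescence from HSF1-driven luciferase expression after 8 hours of MG132 stress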
T2 sequence (P38532 whole entry): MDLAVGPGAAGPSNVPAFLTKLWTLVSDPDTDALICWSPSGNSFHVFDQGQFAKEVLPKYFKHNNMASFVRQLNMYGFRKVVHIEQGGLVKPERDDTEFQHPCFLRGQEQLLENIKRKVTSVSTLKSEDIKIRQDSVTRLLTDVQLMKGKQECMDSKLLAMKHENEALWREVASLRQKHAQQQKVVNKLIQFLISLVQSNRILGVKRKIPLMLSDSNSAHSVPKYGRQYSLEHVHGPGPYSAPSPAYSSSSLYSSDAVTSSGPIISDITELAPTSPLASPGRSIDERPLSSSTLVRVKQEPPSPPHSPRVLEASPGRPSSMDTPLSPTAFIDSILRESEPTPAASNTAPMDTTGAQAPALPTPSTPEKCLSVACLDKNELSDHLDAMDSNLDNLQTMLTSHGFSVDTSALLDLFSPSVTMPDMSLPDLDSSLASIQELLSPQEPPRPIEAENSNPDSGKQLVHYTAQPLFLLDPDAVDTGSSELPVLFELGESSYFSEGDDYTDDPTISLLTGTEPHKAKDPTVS

[7] = NIH3T3 cell viability loss – ATP luminescence, mouse fibroblasts, counter-screen, dose response (AID 2010); type: functional, cell-based;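 also: cells exposed to compound for about 90 hours before reading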
[8] = Trypanosoma cruzi growth suppression in host cells – NIH3T3 host cells, beta-gal luminescence, confirmation (AID 2044); type: functional, cell-based;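 also: intracellular parasites grown in NIH/3T3 mouse fibroblasts as host cells; luminescent beta-galactosidase reporter signal from transgenic T. cruzi replicating inside host cells; inhibitors lower the luminescence signal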
[9] = biological target: FAD-linked sulfhydryl oxidase ALR (Homo sapiens, UniProt P55789); test: ALR-catalysed DTT oxidation blockers – biochemical, H2O2 detection, luminescence, cherry-pick, dose response (AID 493248)
FAD-linked sulfhydryl oxidase ALR, sequence (P55789 whole entry): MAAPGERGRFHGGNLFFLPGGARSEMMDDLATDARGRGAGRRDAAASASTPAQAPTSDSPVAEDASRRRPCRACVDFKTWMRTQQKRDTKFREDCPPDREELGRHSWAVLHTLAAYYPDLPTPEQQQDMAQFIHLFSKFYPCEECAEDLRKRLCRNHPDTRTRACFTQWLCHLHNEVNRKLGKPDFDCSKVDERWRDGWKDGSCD

[10] = biological target: T3, Zinc finger protein mex-5 (Caenorhabditis elegans, UniProt Q9XUB2); test: potency of MEX-5 RNA-binding blockers – biochemical, C. elegans, fluorescence polarization, dose response (AID 1960)
T3 sequence (Q9XUB2 whole entry): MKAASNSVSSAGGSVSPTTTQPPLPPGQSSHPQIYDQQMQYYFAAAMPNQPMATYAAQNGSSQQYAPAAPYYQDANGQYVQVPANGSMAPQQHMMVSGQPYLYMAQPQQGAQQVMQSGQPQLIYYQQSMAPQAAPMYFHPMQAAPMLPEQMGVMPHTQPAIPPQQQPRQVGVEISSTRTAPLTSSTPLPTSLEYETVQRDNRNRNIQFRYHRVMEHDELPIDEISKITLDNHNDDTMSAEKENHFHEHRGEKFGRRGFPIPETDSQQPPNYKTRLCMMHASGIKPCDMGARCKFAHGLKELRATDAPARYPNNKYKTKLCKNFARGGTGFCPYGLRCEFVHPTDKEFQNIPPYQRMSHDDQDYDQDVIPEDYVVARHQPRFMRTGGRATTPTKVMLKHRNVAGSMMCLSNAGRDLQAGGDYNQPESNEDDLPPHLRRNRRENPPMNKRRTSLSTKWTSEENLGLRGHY

[11] = biological target: T4, RNA-binding protein pos-1 (Caenorhabditis elegans, UniProt G5EF15); test: disruptors of C. elegans POS-1 RNA interaction – biochemical, fluorescence polarization, dose response (AID 1964);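 also: purified POS-1 fused to maltose binding protein made in E. coli; potency of compounds blocking POS-1 binding to fluorescent RNA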
T4 sequence (G5EF15 whole entry): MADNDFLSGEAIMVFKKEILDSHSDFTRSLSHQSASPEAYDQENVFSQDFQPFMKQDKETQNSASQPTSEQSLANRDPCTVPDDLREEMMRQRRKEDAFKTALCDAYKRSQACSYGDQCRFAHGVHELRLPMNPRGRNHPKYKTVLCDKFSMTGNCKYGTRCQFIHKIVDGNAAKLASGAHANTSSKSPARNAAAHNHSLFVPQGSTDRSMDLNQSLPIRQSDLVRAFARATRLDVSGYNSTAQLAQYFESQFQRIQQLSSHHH

[12] = intracellular Trypanosoma cruzi inhibitors in host cells – cell-based, plate reader, cherry-pick samples, set 3, dose response (AID 651818); type: functional;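 also: compounds incubated with infected cells for about four days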

Cytochrome P450 3A4, sequence (P08684 whole entry): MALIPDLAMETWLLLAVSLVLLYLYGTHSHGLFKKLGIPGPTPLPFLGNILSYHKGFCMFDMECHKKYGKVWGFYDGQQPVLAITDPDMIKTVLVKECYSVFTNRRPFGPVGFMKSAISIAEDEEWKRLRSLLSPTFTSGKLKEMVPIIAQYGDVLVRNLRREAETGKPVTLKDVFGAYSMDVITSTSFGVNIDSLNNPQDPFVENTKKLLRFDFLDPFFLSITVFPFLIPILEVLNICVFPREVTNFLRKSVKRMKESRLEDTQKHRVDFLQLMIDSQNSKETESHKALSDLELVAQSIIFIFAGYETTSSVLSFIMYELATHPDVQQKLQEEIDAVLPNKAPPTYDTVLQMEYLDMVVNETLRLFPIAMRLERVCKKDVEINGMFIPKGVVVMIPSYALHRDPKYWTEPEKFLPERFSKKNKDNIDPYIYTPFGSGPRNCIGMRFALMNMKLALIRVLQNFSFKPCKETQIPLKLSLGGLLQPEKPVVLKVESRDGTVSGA

## CCCn1c(C)nc2c(NC(C)CCCN(CC)CC)nc(C)nc21 (stereo not given)
Cytochrome P450 3A4
  AC50: 25.1 µM (inconclusive)

## CN1CC(CO)=C[C@H]2c3cccc4[nH]cc(c34)C[C@H]21
Cytochrome P450 3A4
  AC50: 39.8 µM (inconclusive)

## CCC1=C(OC(=O)N(CC)CC)N2C(=O)O/C(=N\CCOC)[C@]2(C)[C@H]2C1=CC[C@H]1C(=O)N(C)C(=O)[C@H]12
Cytochrome P450 3A4
  AC50: 10 µM (inconclusive)

## COC(=O)/C=C/C(=O)Nc1ccc(O)c(Cl)c1
Large T antigen
  IC50: 11.7 µM (active)

## COc1cc(/C=C/C(=O)OCC(=O)Nc2ccc(S(N)(=O)=O)cc2)ccc1O
Large T antigen
  IC50: 20 µM (active)

## Oc1ccc(Nc2nc(Cl)nc(NCc3ccco3)n2)cc1
Large T antigen
  IC50: 10.7 µM (active)

## CC(C)CNC(=O)c1ccccc1NC(=O)c1ccccc1N(C)S(=O)(=O)c1ccccc1
[1]
  AC50: 0.261 µM (active)
[2]
  AC50: 1.62 µM (active)
[3]
  AC50: 0.937 µM (active)
[4]
  AC50: 0.961 µM (active)

## CCOc1ccc(NCc2cccn2-c2nnc(N3CCC(C(=O)NCCCN4CCCCC4)CC3)s2)cc1
[5]
  IC50: 64.7 µM (active)
[6]
  EC50: > 195 µM (not active)

## CN(Cc1ccc(Cl)cc1Cl)C(=O)c1cccc(S(=O)(=O)N2CCN(c3ccccc3)CC2)c1
[1]
  AC50: 43 µM (active)
[2]
  AC50: > 70 µM (inactive)
[7]
  EC50: > 60 µM (not active)
[3]
  AC50: 36 µM (active)
[4]
  AC50: 23.9 µM (active)
[8]
  EC50: 1.64 µM (active)

## C=CCOC(=O)C(C(=O)CC)C(NC(=O)OC)c1ccc(F)cc1 (stereo not given)
Cytochrome P450 3A4
  AC50: 3.16 µM (inconclusive)

## COc1ccc(-c2coc3cc(OC(C)=O)cc(OC(C)=O)c3c2=O)cc1
Cytochrome P450 3A4
  AC50: 31.6 µM (inconclusive)

## Nc1ccc2[nH]c(C3CCCCC3)nc2c1
[5]
  IC50: 70.2 µM (active)
[9]
  AC50: 1.13 µM (active)

## CC(=O)c1c(O)c(C)c(O)c2c1OC1=CC(=O)C(C(C)=O)C(=O)[C@@]12C (stereo not given in full)
Cytochrome P450 3A4
  AC50: 12.6 µM (inconclusive)

## COC(=O)c1ccc(C23CC4(C2)[C@H](CN(Cc2ccc(C(F)(F)F)cc2)[C@@H]4c2ccccc2)C3c2ccccc2)cc1 (stereo not given in full)
[10]
  EC50: > 300 µM (not active)
[11]
  EC50: > 300 µM (not active)
Cytochrome P450 3A4
  AC50: 25.1 µM (inconclusive)

## CCCc1nc(-c2ccccc2O)n(-c2ccccc2)n1
[6]
  EC50: > 195 µM (not active)

## Cn1cc(CN2CCc3ccccc3C2)c2ccccc21
[6]
  EC50: > 195 µM (not active)

## O=C(CCc1ccccc1)Nc1cccc([N+](=O)[O-])c1
[6]
  EC50: > 195 µM (not active)

## CCCCCn1c(SCC(=O)CC(=O)OCC)nc2cc(C(=O)N3CCC(C(N)=O)CC3)ccc2c1=O
[6]
  EC50: > 195 µM (not active)

## Cc1n[nH]c2ncc(C(=O)c3ccccc3O)cc12
[1]
  AC50: 4.64 µM (active)
[2]
  AC50: 2.78 µM (active)
[3]
  AC50: 0.606 µM (active)
[4]
  AC50: 6.5 µM (active)

## Cc1cc(OCC(=O)NCCc2ccc(S(N)(=O)=O)cc2)c2c(C)cc(=O)oc2c1
[6]
  EC50: > 195 µM (not active)

## c1cnc2ccc(C(c3nnnn3C3CCCCC3)N3CCCCC3)cc2c1 (stereo not given)
[1]
  AC50: 10.1 µM (active)
[2]
  AC50: 6.97 µM (active)
[3]
  AC50: 14.9 µM (active)
[4]
  AC50: 4.05 µM (active)

## C[C@H]1CN([C@@H](C)CO)C(=O)Cc2cc(NS(=O)(=O)c3ccccc3)ccc2O[C@H]1CN(C)Cc1ccc(C(=O)Nc2ccccc2N)cc1
[12]
  AC50: 3.55 µM (active)

## C[C@H]1CN([C@@H](C)CO)C(=O)Cc2cc(N(C)C)ccc2O[C@H]1CN(C)Cc1ccc(Oc2ccccc2)cc1
[12]
  AC50: 1.57 µM (active)

## C[C@H]1CN([C@@H](C)CO)C(=O)Cc2cc(NS(=O)(=O)c3ccc(F)cc3)ccc2O[C@@H]1CN(C)Cc1ccc(-c2ccccc2)cc1
[12]
  AC50: 3.21 µM (active)

## C[C@H](CO)N1C[C@H](C)[C@H](CN(C)CC2CC2)Oc2c(NC(=O)Nc3ccc(C(F)(F)F)cc3)cccc2C1=O
[12]
  AC50: 2.66 µM (active)

## C[C@@H]1CN([C@@H](C)CO)C(=O)c2cccc(NC(=O)C3CCCCC3)c2O[C@H]1CN(C)CC1CC1
[12]
  AC50: 8.92 µM (active)

## COc1ccc(S(=O)(=O)Nc2ccc3c(c2)C(=O)N([C@@H](C)CO)C[C@H](C)[C@H](CN(C)Cc2ccc(C(F)(F)F)cc2)O3)cc1
[12]
  AC50: 4.07 µM (active)

## COc1ccc(NC(=O)Nc2ccc3c(c2)CC(=O)N([C@@H](C)CO)C[C@H](C)[C@H](CN(C)Cc2ccc(-c4ccccc4)cc2)O3)cc1
[12]
  AC50: 3.37 µM (active)

## C[C@H]1CN([C@@H](C)CO)C(=O)Cc2cc(NC(=O)Cc3cn(C)c4ccccc34)ccc2O[C@H]1CN(C)Cc1ccc(Oc2ccccc2)cc1
[12]
  AC50: 5.58 µM (active)

## Cc1ccc(S(=O)(=O)N(C)C[C@@H]2Oc3ncc(Br)cc3C(=O)N([C@@H](C)CO)C[C@@H]2C)cc1
[1]
  AC50: 9.72 µM (active)
[3]
  AC50: 3.56 µM (active)
[4]
  AC50: 4.36 µM (active)

## Cc1cc(O)nc(N/N=C/c2c[nH]c3ccccc23)n1
Large T antigen
  IC50: 24.6 µM (active)

## COc1cc(/C=N/N2C(=O)C3C4C=CC(CC4)C3C2=O)ccc1O (stereo not given)
Large T antigen
  IC50: 10.1 µM (active)

## COc1ccc2c(c1)OCC(Cc1ccc(OC)c(OC(C)=O)c1)C2=O (stereo not given) [DEOXYSAPPANONE B 7,3'-DIMETHYL ETHER ACETATE]
Cytochrome P450 3A4
  AC50: 39.8 µM (inconclusive)

## Cc1cc(O)c(C=O)c2c1C(=O)Oc1c(COC(=O)/C=C/C(=O)O)c(O)c(C(=O)O)c(C)c1O2 [FUMARPROTOCETRARIC ACID]
Cytochrome P450 3A4
  AC50: 39.8 µM (inconclusive)

## COc1cc2ccc(=O)oc2c2ccoc12 [SPHONDIN]
Cytochrome P450 3A4
  AC50: 3.98 µM (inconclusive)
